Article PMC10940318, “Targeted intracellular delivery of dimeric STINGa by two pHLIP peptides for treatment of solid tumors” (Frontiers in Pharmacology, 2024)
Values joined by “and” are separate entries in the source; they are usually repeats but may differ in a detail not shown here. Equal entries are not always repeated.

Columns and labels:
[1] = Self-immolation kinetics of the S-S linker and payload release after DTT, by HPLC; assay type: physicochemical; settings: DTT in 50 mM phosphate buffer, 150 mM NaCl, pH 7.4; HPLC at 0.5-48 h, UV 220/280/325 nm
Description: Figure S3. Kinetics of self-immolation of 2pHLIP-dMSA. […] Starting 2pHLIP-dMSA is shown on A.
Figure S4. Self-immolation kinetics of pHLIP-mMSA. HPLC chromatograms recorded at 280 nm and 325 nm for pHLIP-mMSA treated with DTT dissolved in 50 mM phosphate buffer containing 150 mM NaCl pH 7.4 at different time points ([…]) after addition of DTT (A-G) and the retention time for mMSA (H) and pHLIP (I) are shown. Starting pHLIP-mMSA is shown on A.

[2] = test system: CT26 murine colorectal cancer tumors; assay: Treatment of CT26 tumors in mice; assay type: in vivo, Balb/c mice; settings: CT26 tumors 100-150 mm3, female Balb/c, followed 65 days
Description: For the treatment of CT26 tumors, 5 × 10^4 CT26 murine colorectal cancer cells (ATCC, CRL-2638) were injected subcutaneously (SQ) in 100 μL of growth medium into the right flank of female Balb/c mice ranging in age from 7 to 9 weeks (Envigo RMS, Inc.). […] The compounds were dissolved in DMSO as a stock solution and transferred to PBS (vehicle). The residual DMSO in the final solution injected into animals was less than 2%. Tumor volume and body weight were measured 3 times per week throughout the study. Measurements of tumors were performed using calipers, and the tumor volume (V) was calculated with the formula: V=0.52∙L∙W^2 where L is the length and W is the width of the measured tumor. Mice were removed from the study and euthanized when the tumor volume was greater than 2,000 mm^3.

ADQDNPWRAYLDLLFPTDTLLLDLLWCG [2pHLIP-dMSA]
time to completion of linker self-immolation and release of payload in its original form [1]: ≤ 48 h
mice survived out of treated, lower dose ([2]; two IP injections of 100 µM 500 µL (l.d.) on days 1 and 3): 4 out of 10 and 4/10
mice with tumor eradicated / survived out of treated ([2]; two IP injections of 300 µM 500 µL on days 1 and 3): 7/10
